Laboratory results from ChEMBL document CHEMBL1127522, “[L-Ala3]DPDPE: a new enkephalin analog with a unique opioid receptor activity profile. Further evidence of delta-opioid receptor multiplicity” (J Med Chem, 1994).
Bridge positions count the residues as written; N and C are the ends. Square brackets hold non-standard residues; d marks the D form. Peptide text beside a SMILES is read from it. dPen = CC(C)(S)[C@@H](N)C(=O)O; dAbu = CC[C@@H](N)C(=O)O

Experiments:
Mu-type opioid receptor = Mu-type opioid receptor (Rattus norvegicus, UniProt P33535); test: Evaluation for the binding affinity by competitive inhibition of [3H]- CTOP binding
[1] = molecular target: Delta-type opioid receptor (Rattus norvegicus, UniProt P33533); test: Evaluation for the binding affinity by competitive inhibition of [3H]- p-chloro DPDPE binding
[2] = molecular target: Delta-type opioid receptor (Mus musculus, UniProt P32300); test: Inhibitory activity of the electrically induced smooth muscle contraction of mouse vas deferens; type: functional, tissue-based
Chain of Delta-type opioid receptor (Mus musculus, UniProt P32300) (P32300 whole entry): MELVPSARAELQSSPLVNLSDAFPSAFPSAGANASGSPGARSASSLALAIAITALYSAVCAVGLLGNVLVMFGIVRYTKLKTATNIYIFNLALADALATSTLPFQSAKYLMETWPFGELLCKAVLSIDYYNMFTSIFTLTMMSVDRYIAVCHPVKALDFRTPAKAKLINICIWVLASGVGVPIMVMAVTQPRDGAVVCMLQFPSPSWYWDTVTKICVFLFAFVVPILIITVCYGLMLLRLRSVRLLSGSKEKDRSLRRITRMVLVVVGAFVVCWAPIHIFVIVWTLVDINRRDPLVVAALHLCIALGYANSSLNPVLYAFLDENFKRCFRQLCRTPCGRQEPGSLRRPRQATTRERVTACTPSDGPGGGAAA

Chain of Mu-type opioid receptor (P33535 whole entry): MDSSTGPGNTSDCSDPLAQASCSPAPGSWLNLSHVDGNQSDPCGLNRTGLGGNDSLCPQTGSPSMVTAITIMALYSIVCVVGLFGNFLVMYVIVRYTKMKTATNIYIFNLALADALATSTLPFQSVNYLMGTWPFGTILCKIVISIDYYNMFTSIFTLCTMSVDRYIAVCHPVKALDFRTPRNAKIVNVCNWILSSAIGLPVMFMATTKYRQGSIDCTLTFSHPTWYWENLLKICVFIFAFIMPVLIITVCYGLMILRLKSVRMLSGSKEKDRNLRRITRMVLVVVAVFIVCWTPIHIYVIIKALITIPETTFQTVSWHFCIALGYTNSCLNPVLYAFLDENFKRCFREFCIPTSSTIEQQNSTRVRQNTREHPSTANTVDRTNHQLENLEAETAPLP
Chain of Delta-type opioid receptor (Rattus norvegicus, UniProt P33533) (P33533 whole entry): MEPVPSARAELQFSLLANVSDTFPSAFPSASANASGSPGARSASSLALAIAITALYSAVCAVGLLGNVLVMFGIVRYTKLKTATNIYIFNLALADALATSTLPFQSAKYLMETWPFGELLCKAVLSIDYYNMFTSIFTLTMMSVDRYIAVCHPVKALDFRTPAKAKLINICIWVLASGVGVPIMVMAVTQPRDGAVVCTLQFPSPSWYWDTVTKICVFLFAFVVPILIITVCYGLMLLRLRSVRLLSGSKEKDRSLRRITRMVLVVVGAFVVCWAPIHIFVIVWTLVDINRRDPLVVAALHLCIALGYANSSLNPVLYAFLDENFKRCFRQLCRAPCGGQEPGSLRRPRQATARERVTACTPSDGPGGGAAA

Row | SMILES | IC50 (Mu-type opioid receptor) [nM] | IC50 [1] [nM] | IC50 [2] [nM]
1 | CC[C@H]1NC(=O)[C@H](NC(=O)[C@@H](N)Cc2ccc(O)cc2)C(C)(C)SSC(C)(C)[C@H](C(=O)O)NC(=O)[C@H](Cc2ccccc2)NC1=O (H-Y[dPen][dAbu]F[dPen]-OH; disulfide 2-5) | > 50000 | 2500 | 
2 | CC1(C)SSC(C)(C)[C@@H](NC(=O)[C@@H](N)Cc2ccc(O)cc2)C(=O)N[C@@H](CO)C(=O)N[C@@H](Cc2ccccc2)C(=O)N[C@H]1C(=O)O (H-Y[dPen]SF[dPen]-OH; disulfide 2-5) | > 22500 |  | 
3 | CC1(C)SSC(C)(C)[C@@H](NC(=O)[C@@H](N)Cc2ccc(O)cc2)C(=O)N[C@H](CO)C(=O)N[C@@H](Cc2ccccc2)C(=O)N[C@H]1C(=O)O (H-Y[dPen][dS]F[dPen]-OH; disulfide 2-5) | > 50000 |  | 1300
